Holding throughout (type): physicochemical
Series [1] can be described thus: Influencing factor stability: high-humidity test. Particulars: Temperature 25°C, relative humidity 92.5±5%; for Purity: HPLC, starting purity: Crystal form VI 99.32%, Amorphous form 98.80%, Crystal form XIII 99.01%; for Crystal form: XRPD. The protocol:
(§1) The crystal form results under different conditions were identified by XRPD analysis, and the purity results under different conditions were identified by HPLC analysis.
(§2) The above samples were then taken on days 5, 10, 15, and 30, respectively. Their crystal forms were tested by adopting X-ray powder diffraction (XRPD), and the sample purities were tested by adopting HPLC. […]

Series [2] in a line: Morphological comparison under polarizing light microscope. To be noted: for dispersibility and flowability / agglomeration and caking: judged from polarizing light microscope images; for crystal morphology: polarizing light microscope.
A short description of series [3]: Influencing factor stability: high-temperature test. Particulars: Temperature 60°C; for Purity: HPLC, starting purity: Crystal form VI 99.32%, Amorphous form 98.80%, Crystal form XIII 99.01%; for Crystal form: XRPD. The protocol:
as §1, §2

The nature of series [4]: Stability test in pure water and buffer solution (suspension, XRPD). Particulars: 25°C, stirred 24 h, solid by XRPD. The protocol:
The suspensions were stirred at 25°C for 24 h, and filtered to obtain the solids. Samples were taken for XRPD measurement. […]

The nature of series [5]: Dynamic vapor sorption (DVS) experiment. To be noted: for Adsorption weight gain (80% RH) / Adsorption weight gain (95% RH): DVS; for Hygroscopicity: class per Chinese Pharmacopoeia 2010 guidance (25±0.2°C, 80% relative humidity).
The nature of series [6]: Influencing factor stability: light exposure test. To be noted: Visible light 4500 Lux ± 500 Lux; for Crystal form: ultraviolet light 1.7 W*h/m^2 (25°C, RH 60%±5%), XRPD; for Purity: HPLC, starting purity: Crystal form VI 99.32%, Amorphous form 98.80%, Crystal form XIII 99.01%. The protocol: as §1, §2
Setting [7] is: ultraviolet light 1.7 W*h/m^2, 5 days.
Where [8] appears, read: ultraviolet light 1.7 W*h/m^2, 10 days.
The mark [9] stands for this setting: ultraviolet light 1.7 W*h/m^2, 15 days.
The mark [10] stands for this setting: ultraviolet light 1.7 W*h/m^2, 30 days.

In the case of `C=CC(=O)Nc1cc(Nc2nc(-c3ccnc(N4CCn5c(cc6c5CC(C)(C)C6)C4=O)c3CO)cn(C)c2=O)ccc1N1CCN(C2CCOCC2)C[C@@H]1C` [Amorphous form, (S)-N-(5-((6-(2-(7,7-dimethyl-1-oxo-1,3,4,6,7,8-hexahydro-2H-cyclopenta[4,5]pyrrolo[1,2-a]pyrazin-2-yl)-3-(hydroxymethyl)pyridin-4-yl)-4-methyl-3-oxo-3,4-dihydropyrazin-2-yl)amino)-2-(2-methyl-4-(tetrahydro-2H-pyran-4-yl)piperazin-1-yl)phenyl)acrylamide], the Purity came to 98.72% in series [1] (5 days); 98.50% in series [1] (10 days); 98.38% in series [1] (15 days); 98.21% in series [1] (30 days); 98.61% in series [3] (5 days); 98.44% in series [3] (10 days). Also, the Purity in series [3] (15 days) turned out to be 98.39%; in series [3] (30 days) it was 97.88%; in series [6] (setting [7]) it was 98.46%; in series [6] (setting [8]), 97.98%; in series [6] (setting [9]) it was 97.29%; in series [6] (setting [10]), 96.55%. Also, the Crystal form result in series [1] (5 days), in series [1] (10 days), in series [1] (15 days), in series [1] (30 days), in series [3] (5 days) and in series [3] (10 days) was “Amorphous form” throughout. The Crystal form entry in series [3] (15 days), in series [3] (30 days), in series [6] (5 days), in series [6] (10 days), in series [6] (15 days) and in series [6] (30 days) was “Amorphous form” in each case. Further, in series [2], the “dispersibility and flowability / agglomeration and caking” value is “significant agglomeration and caking”. Moreover, in series [2], the crystal morphology entry is “irregular glassy state”. The Suspension result in series [4] (Pure water), in series [4] (pH 4.5 buffer solution) and in series [4] (pH 6.8 buffer solution) was “Transform into other crystal forms” each time. In addition, the “Adsorption weight gain (80% RH)” value is reported as 4.55% in series [5] and “about 4.55%” in series [5] (listed as amorphous form). Besides, the “Adsorption weight gain (95% RH)” value was 6.76% in series [5] and “about 6.76%” in series [5] (listed as amorphous form). Besides, the values for the Hygroscopicity result in series [5] and in series [5] (listed as amorphous form) were “Hygroscopic (hygroscopic weight gain is less than 15% but not less than 2%)” and “hygroscopic”, respectively.

As for `C=CC(=O)Nc1cc(Nc2nc(-c3ccnc(N4CCn5c(cc6c5CC(C)(C)C6)C4=O)c3CO)cn(C)c2=O)ccc1N1CCN(C2CCOCC2)C[C@@H]1C` [Crystal form V, (S)-N-(5-((6-(2-(7,7-dimethyl-1-oxo-1,3,4,6,7,8-hexahydro-2H-cyclopenta[4,5]pyrrolo[1,2-a]pyrazin-2-yl)-3-(hydroxymethyl)pyridin-4-yl)-4-methyl-3-oxo-3,4-dihydropyrazin-2-yl)amino)-2-(2-methyl-4-(tetrahydro-2H-pyran-4-yl)piperazin-1-yl)phenyl)acrylamide], the Suspension result in series [4] (pH 4.5 buffer solution) and in series [4] (pH 6.8 buffer solution) was “Transform into other crystal forms” throughout.

In the case of `C=CC(=O)Nc1cc(Nc2nc(-c3ccnc(N4CCn5c(cc6c5CC(C)(C)C6)C4=O)c3CO)cn(C)c2=O)ccc1N1CCN(C2CCOCC2)C[C@@H]1C` [Crystal form XIII, (S)-N-(5-((6-(2-(7,7-dimethyl-1-oxo-1,3,4,6,7,8-hexahydro-2H-cyclopenta[4,5]pyrrolo[1,2-a]pyrazin-2-yl)-3-(hydroxymethyl)pyridin-4-yl)-4-methyl-3-oxo-3,4-dihydropyrazin-2-yl)amino)-2-(2-methyl-4-(tetrahydro-2H-pyran-4-yl)piperazin-1-yl)phenyl)acrylamide], the Purity in series [1] (5 days) is recorded as 98.92%; in series [1] (10 days) it was 98.86%; in series [1] (15 days) it was 98.81%; in series [1] (30 days), 98.77%; in series [3] (5 days), 98.79%; in series [3] (10 days), 98.54%. Further, the Purity in series [3] (15 days) was 98.20%; in series [3] (30 days), 97.85%; in series [6] (setting [7]), 98.65%; in series [6] (setting [8]), 98.32%; in series [6] (setting [9]), 97.76%; in series [6] (setting [10]), 97.15%. Besides, the Crystal form entry is given as “Crystal form XIII” in series [1] (5 days); “Crystal form XIII” in series [1] (10 days); “Crystal form XIII” in series [1] (15 days); “Crystal form XIII” in series [1] (30 days); “Transform into other crystal forms” in series [3] (5 days); “Transform into other crystal forms” in series [3] (10 days). The Crystal form result was “Transform into other crystal forms” in series [3] (15 days); “Transform into other crystal forms” in series [3] (30 days); “Crystal form XIII” in series [6] (5 days); “Crystal form XIII” in series [6] (10 days); “Crystal form XIII” in series [6] (15 days); “Crystal form XIII” in series [6] (30 days). Also, in series [2], the “dispersibility and flowability / agglomeration and caking” value is recorded as “relatively poor flowability”. Further, the crystal morphology entry in series [2] was “fine”. Also, the Suspension result in series [4] (Pure water), in series [4] (pH 4.5 buffer solution) and in series [4] (pH 6.8 buffer solution) was “Transform into other crystal forms” each time. The results for the “Adsorption weight gain (80% RH)” value in series [5] and in series [5] (listed as crystal form XIII) were 6.53% and “about 6.53%”, respectively. The “Adsorption weight gain (95% RH)” value in series [5] was 14.45%; in series [5] (listed as crystal form XIII) it was “about 14.45%”. Moreover, the Hygroscopicity entry in series [5] was “Hygroscopic (hygroscopic weight gain is less than 15% but not less than 2%)”; in series [5] (listed as crystal form XIII) it was “hygroscopic”.

The values are drawn from patent publication EP4759812A1 (Guangzhou Lupeng Pharmaceutical Co., Ltd., priority 2023, dated 2025).
